Tested on: Lewis male rats
Settings: high doses, oral daily days 5-8 and 11-14; naproxen 10 mg/kg, conjugate 18 mg/kg

COc1ccc2cc([C@H](C)C(=O)O)ccc2c1 [Naproxen, (S)-(+)-methoxy-α-methyl-2-naphthaleneacetic acid]
Reduction of swelling compared to control by day 15: approximately 70%

Reference: US6407135B1, “Conjugates of dithiocarbamates with pharmacologically active agents and uses therefor” (Medinox, Inc., priority 1997, dated 2002)
